Where a name gives a salt, the structure may show the parent alone.
Molecular target: T1, human factor Xa (Homo sapiens, UniProt P00742)
T1 construct: factor Xa, which is formed from the proenzyme factor X
Assay: Determination of the factor Xa inhibition (fluorogenic substrate Boc-Ile-Glu-Gly-Arg-AMC)
Type: biochemical
Settings: 15 min preincubation at 22° C., substrate 5 μmol/l, pH 7.4, fluorescence 360/460 nm
Protocol: In order to determine the factor Xa inhibition of the substances listed above, a biochemical test system is set up, in which the conversion of a factor Xa substrate is used to determine the enzymatic activity of human factor Xa. Factor Xa cleaves aminomethylcoumarin, whose fluorescence is measured, from the peptidic substrate. The determinations are carried out in microtitre plates.
Substances to be tested, in various concentrations, are dissolved in dimethyl sulphoxide and incubated for 15 min at 22° C. with human Factor Xa ([…] dissolved in 50 mmol/l of Tris buffer [C,C,C-tris(hydroxymethyl)aminomethane], 100 mmol/l NaCl, 0.1% BSA [bovine serum albumin], pH 7.4). The substrate (5 μmol/l of Boc-Ile-Glu-Gly-Arg-AMC from Bachem) is then added. After an incubation time of 30 min, the sample is excited at a wavelength of 360 nm, and the emission at 460 nm is measured. The measured emissions of the test batches with test substance are compared to the control batches without test substance (only dimethyl sulphoxide instead of test substance in dimethyl sulphoxide), and IC50 values are calculated from the concentration/activity relationships.

T1 sequence (P00742 235-488 limits assumed): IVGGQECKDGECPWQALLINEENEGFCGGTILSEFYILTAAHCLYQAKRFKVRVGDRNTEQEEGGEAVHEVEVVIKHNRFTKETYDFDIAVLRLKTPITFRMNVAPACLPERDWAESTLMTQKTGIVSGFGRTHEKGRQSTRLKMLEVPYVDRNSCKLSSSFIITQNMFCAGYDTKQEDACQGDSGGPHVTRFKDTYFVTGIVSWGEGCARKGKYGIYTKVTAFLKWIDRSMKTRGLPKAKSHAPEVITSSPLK
T1 sequence (P00742 41-179 partner limits assumed): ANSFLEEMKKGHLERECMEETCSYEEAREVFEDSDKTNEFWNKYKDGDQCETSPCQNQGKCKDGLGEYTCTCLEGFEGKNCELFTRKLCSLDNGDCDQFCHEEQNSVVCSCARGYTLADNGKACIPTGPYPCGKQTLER

Row | IC50 [nM] | SMILES
1 | 7.9 | N=C1OCCN1c1ccc(C2=NOC(CNC(=O)c3ccc(Cl)s3)C2)cc1 (centres unmarked) [Example 1, 5-Chloro-N-({3-[4-(2-imino-1,3-oxazolidin-3-yl)phenyl]-4,5-dihydroisoxazol-5-yl}methyl)thiophene-2-carboxamide]
2 | 1.4 | N=C1OCCN1c1ccc(-n2cc(CNC(=O)c3ccc(Cl)s3)c(-c3ccccc3)n2)cc1 [Example 2, 5-Chloro-N-({1-[4-(2-imino-1,3-oxazolidin-3-yl)phenyl]-3-phenyl-1H-pyrazol-4-yl}methyl)thiophene-2-carboxamide hydrochloride]

— US20110015241A1, “SUBSTITUTED HETEROCYCLES AND USE THEREOF” (BAYER SCHERING PHARMA AKTIENGESELLSCHAFT, priority 2006, published 2011)
